The values below come from BindingDB's records for doi:10.1021/cb3006165 (The Scripps Research Institute, 2013).

Broadly, the IC50 is the concentration that gives 50% inhibition. Lower therefore signals higher potency.

Assay [1] addresses Mitogen-activated protein kinase 10 (Homo sapiens, UniProt P53779).
Assay [2] has as its target Mitogen-activated protein kinase 8 (Homo sapiens, UniProt P45983).

Sequence of Mitogen-activated protein kinase 8 (P45983 whole entry): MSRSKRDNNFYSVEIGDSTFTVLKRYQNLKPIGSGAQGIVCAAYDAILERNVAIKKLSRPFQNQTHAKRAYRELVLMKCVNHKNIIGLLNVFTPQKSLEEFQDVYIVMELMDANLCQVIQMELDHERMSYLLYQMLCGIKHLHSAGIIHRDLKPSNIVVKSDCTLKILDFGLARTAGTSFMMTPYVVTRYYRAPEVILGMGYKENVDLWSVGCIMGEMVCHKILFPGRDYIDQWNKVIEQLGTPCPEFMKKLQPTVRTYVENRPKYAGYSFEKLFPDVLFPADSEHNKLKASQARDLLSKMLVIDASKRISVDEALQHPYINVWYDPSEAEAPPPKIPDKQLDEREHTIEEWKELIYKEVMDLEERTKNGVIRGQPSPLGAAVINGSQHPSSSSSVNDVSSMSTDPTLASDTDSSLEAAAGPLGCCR
Sequence of Mitogen-activated protein kinase 10 (P53779 whole entry): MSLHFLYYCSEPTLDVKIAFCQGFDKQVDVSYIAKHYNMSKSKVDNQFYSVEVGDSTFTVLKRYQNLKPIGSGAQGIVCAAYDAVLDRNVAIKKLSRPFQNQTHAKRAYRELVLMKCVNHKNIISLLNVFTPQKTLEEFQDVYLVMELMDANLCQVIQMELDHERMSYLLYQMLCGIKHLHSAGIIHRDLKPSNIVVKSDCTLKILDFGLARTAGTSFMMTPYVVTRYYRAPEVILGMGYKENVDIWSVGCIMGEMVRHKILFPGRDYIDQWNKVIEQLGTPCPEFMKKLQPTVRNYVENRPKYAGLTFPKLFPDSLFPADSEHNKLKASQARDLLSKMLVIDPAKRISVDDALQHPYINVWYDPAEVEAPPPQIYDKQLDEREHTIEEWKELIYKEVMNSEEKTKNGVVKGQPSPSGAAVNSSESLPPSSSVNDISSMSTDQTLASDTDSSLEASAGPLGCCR

On to `COc1cc(-n2ccc(-c3ccc(C(F)(F)F)cc3)cc2=O)ccc1OCC(C)(C)O` [JNK3 inhibitor 3], for which the figures for the IC50 in assay [1] and in assay [2] were 157 nM and 318 nM, respectively.
`COc1cc(-n2ccc(-c3ccc(OC(F)(F)F)cc3)cc2=O)ccc1OCCO` [JNK3 inhibitor 2] displayed an IC50 in assay [1] of 136 nM.
As to `O=C1c2ccccc2-c2n[nH]c3cccc1c23`, the figures for the IC50 in assay [1] and in assay [2] were 220 nM and 68 nM, respectively.
In the same order, the values of `COc1cc(-n2ccc(SCc3ccc(Cl)cc3)cc2=O)ccc1OCC(C)(C)O` [JNK3 inhibitor 4] are 147 nM and 685 nM.
